How the values were obtained:
23S rRNA = test: Bond constant by competitive luminescence anisotropy (CRP probe displacement), 23S rRNA; conditions: read-out: binding force (KD) against 23S RNA; luminescence anisotropy competition with CRP, 20° C., HEPES pH 7.5; read-out: binding force (KD) against 32S RNA
Method: (§1) A sense DNA of 16S rRNA (sequence listing 1) and an antisense DNA of 16S rRNA (sequence listing 2); a sense DNA of RRE RNA (sequence listing 3) and an antisense DNA of RRE RNA (sequence listing 4); and a sense DNA of 23S RNA (sequence listing 5) and an antisense DNA of 23S RNA (sequence listing 6) was prepared according to the present invention.
(§2) Paricularly, the two DNAs comprising sense and antisense (2.5 nanomole, respectively), 5× buffer solution (200 mM Tris-HCl, 30 mM MgCl2, 10 mM spermidine, 50 mM NaCl, pH 7.9; 20 μl), 100 mM DL-dithiotheitol (DTT; 20 μl), four nucleotide tri phosphate mixture (2.5 mM, 20 μl), T7 RNA polymerase (50 units/mL; 1 μl) and diluted water (34 μl) were mixed and cultured at 37° C. for 2 hours. And then 1 unit/ml of Rnase-free RQ1 Dnase was added to the mixture and cultured at 37° C. for 10 minutes. 100 μl of a PCI mixture solution (phenol:chloroform:[…]=25:24:1) was added to the obtained mixture, mixed at room temperature for 5 minutes and then centrifuged at 1400 rpm for 10 minutes. […]
(§3) The paromomycin bonded with tetramethylrhodamine (hereinafter referred to as “[…]”) is used as a luminescence fluorescent probe. The luminescence anisotropy is measured by establishing a thermostat of 20° C. at the Perkin-Elmer LS-50B luminescence spectroscope. The luminescence absorptance of CRP is 510 nm and its luminescence fluorescent is observed at 550 nm. […]

16S rRNA = test: Bond constant by competitive luminescence anisotropy (CRP probe displacement), 16S rRNA; conditions: luminescence anisotropy competition with CRP, 20° C., HEPES pH 7.5; read-out: binding force (KD) against 16s rRNA
Method: as §1, §2, §3

RRE RNA = test: Bond constant by competitive luminescence anisotropy (CRP probe displacement), RRE RNA; conditions: luminescence anisotropy competition with CRP, 20° C., HEPES pH 7.5; read-out: binding force (KD) against RRE RNA
Method: as §1, §2, §3

Substance: Neomycin
- Kd (23S rRNA): > 2000 nM
- Kd (16S rRNA): > 2000 nM
- Kd (RRE RNA): 180 nM
